Measured values from the supplement of paper PMC10307832.

Compound: CC(=O)c1c(C)c2cnc(Nc3ccc(N4CCNCC4)cn3)nc2n(C2CCCC2)c1=O [Palbociclib]
Experiment: relative viability (nuclei count vs DMSO), 5 days (fraction); higher = more cells survive
In short: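 Hoechst staining, done together with fixation and permeabilisation, marked nuclei for 4× imaging and MetaXpress counting. This followed 5 days without medium change after lung cancer cell lines, kept overnight at 37 °C in 1536-well plates, were pinned with five library-drug doses (not always all listed) spaced by √10 on vehicle-anchored plates. Viability is the ratio of treated-well to vehicle-well nuclei, expressed as a median across plates. Plates passed only at control CV below 25% with at least one doubling.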

Cell Line | relative viability (0.01 µM) | relative viability (0.03162 µM) | relative viability (0.1 µM) | relative viability (0.3162 µM) | relative viability (0.5 µM, anchor plate) | relative viability (1 µM)
201T | 1.02 | 0.863 | 0.9 | 0.867 | 0.349 | 0.571
A549 | 0.983 | 0.71 | 0.68 | 0.692 | – | 0.448
A-427 | 0.941 | 0.775 | 0.755 | 0.727 | 0.529 | 0.534
ABC-1 | 1.02 | 0.853 | 0.81 | 0.785 | 0.755 | 0.686
BEN | 1.04 | 0.813 | 0.778 | 0.814 | 0.487 | 0.476
CAL-12T | 1 | 0.851 | 0.75 | 0.651 | 0.446 | 0.611
COR-L23 | 1.05 | 0.886 | 0.739 | 0.808 | 0.293 | 0.528
COR-L 105 | 1 | 0.724 | 0.616 | 0.651 | 0.408 | 0.473
Calu-6 | 1.06 | 0.919 | 0.833 | 0.79 | – | 0.588
ChaGo-K-1 | 1.02 | 0.778 | 1.04 | 1.02 | 0.939 | 1.02
EBC-1 | 1.02 | 0.809 | 0.662 | 0.543 | – | 0.248
EKVX | 1.12 | 0.733 | 0.766 | 0.882 | 0.394 | 0.544
EMC-BAC-2 | 0.999 | 0.749 | 0.791 | 0.736 | 0.514 | 0.589
EPLC-272H | 1.07 | – | 0.798 | 0.828 | 0.33 | 0.456
H3255 | 1.04 | 0.922 | 0.823 | 0.904 | 0.316 | 0.519
HARA | 1.1 | – | 0.746 | 0.652 | 0.262 | 0.392
HCC-15 | 0.986 | – | 0.915 | 0.828 | 0.717 | 0.732
HCC-44 | 0.891 | 0.82 | 0.969 | 0.96 | 0.962 | 1.02
HCC-78 | 0.998 | 0.756 | 0.698 | 0.703 | 0.477 | 0.385
HCC-366 | 1 | – | 0.977 | 1 | 0.383 | 0.859
HCC-827 | 1.04 | 0.904 | 0.887 | 0.912 | 0.483 | 0.786
HOP-62 | 0.953 | – | 0.87 | 0.795 | 0.451 | 0.663
LC-2-ad | 0.902 | – | 0.816 | 0.73 | 0.479 | 0.518
LCLC-97TM1 | 1.03 | – | 0.657 | 0.741 | 0.225 | 0.272
LCLC-103H | 1 | 0.762 | 0.858 | 0.833 | 0.469 | 0.537
LK-2 | 1 | 0.736 | 0.8 | 0.965 | 0.727 | 0.803

Cell Line | relative viability (0.01 µM) | relative viability (0.03162 µM) | relative viability (0.1 µM) | relative viability (0.3162 µM) | relative viability (0.5 µM, anchor plate) | relative viability (1 µM)
LOU-NH91 | 1.09 | 0.661 | 0.723 | 0.702 | 0.529 | 0.608
LU99A | 0.91 | 0.711 | 0.924 | 0.928 | 0.414 | 0.65
LXF-289 | 1.01 | 0.878 | 0.928 | 0.899 | 0.593 | 0.796
NCI-H23 | 0.973 | 0.417 | 0.765 | 0.877 | 0.538 | 0.593
NCI-H322M | 0.888 | 0.825 | 0.633 | 0.648 | 0.492 | 0.502
NCI-H358 | 0.986 | 0.675 | 0.718 | 0.543 | 0.138 | 0.277
NCI-H441 | 0.829 | 0.655 | 0.741 | 0.741 | 0.235 | 0.5
NCI-H460 | 0.974 | 0.81 | 0.912 | 0.864 | 0.199 | 0.532
NCI-H520 | 0.915 | 0.677 | 0.596 | 0.549 | 0.237 | 0.36
NCI-H522 | 1.15 | 0.616 | 0.949 | 0.915 | 1.02 | 0.879
NCI-H596 | 0.894 | 0.775 | 0.9 | 0.876 | – | 1.04
NCI-H647 | 1.06 | 0.781 | 0.865 | 0.82 | 0.415 | 0.597
NCI-H650 | 0.971 | – | 0.711 | 0.794 | 0.327 | 0.516
NCI-H661 | 0.968 | 0.862 | 0.765 | 0.611 | 0.415 | 0.455
NCI-H727 | 0.814 | 0.786 | 0.653 | 0.659 | 0.625 | 0.564
NCI-H838 | 1.06 | 0.833 | 0.761 | 0.816 | 0.232 | 0.353
NCI-H1299 | 0.981 | 0.977 | 0.906 | 0.839 | – | 0.729
NCI-H1355 | 0.999 | 0.672 | 0.884 | 0.844 | 0.427 | 0.62
NCI-H1395 | 1.01 | 0.825 | 0.797 | 0.858 | 0.647 | 0.597
NCI-H1437 | 1.02 | 0.877 | 0.863 | 0.823 | 0.311 | 0.571
NCI-H1563 | 0.988 | 0.896 | 0.85 | 0.869 | – | 0.853
NCI-H1650 | 0.928 | 0.734 | 0.77 | 0.726 | 0.359 | 0.487
NCI-H1651 | 0.967 | 0.971 | 0.986 | 0.971 | 0.537 | 0.772
NCI-H1666 | 1 | 0.86 | 0.873 | 0.836 | 0.632 | 0.582
NCI-H1734 | 0.951 | 0.592 | 0.75 | 0.659 | 0.345 | 0.538
NCI-H1755 | 1.03 | 0.896 | 0.915 | 0.845 | 0.443 | 0.664

Cell Line | relative viability (0.01 µM) | relative viability (0.03162 µM) | relative viability (0.1 µM) | relative viability (0.3162 µM) | relative viability (0.5 µM, anchor plate) | relative viability (1 µM)
NCI-H1792 | 0.987 | 0.8 | 0.696 | 0.612 | 0.678 | 0.383
NCI-H1793 | 1.02 | 0.54 | 0.77 | 0.682 | 0.325 | 0.327
NCI-H1915 | 1.01 | 0.695 | 0.973 | 0.902 | 0.527 | 0.756
NCI-H1944 | 0.971 | 0.762 | 0.886 | 0.885 | 0.345 | 0.532
NCI-H1975 | 0.923 | 0.949 | 0.924 | 0.865 | 0.593 | 0.793
NCI-H1993 | 1.05 | 0.882 | 0.726 | 0.69 | 0.658 | 0.67
NCI-H2009 | 0.991 | 0.905 | 0.781 | 0.693 | 0.237 | 0.35
NCI-H2023 | 0.913 | 0.773 | 0.694 | 0.625 | 0.392 | 0.4
NCI-H2085 | 0.979 | 0.966 | 0.879 | 0.805 | 0.475 | 0.574
NCI-H2087 | 1.08 | 0.546 | 0.815 | 0.586 | 0.242 | 0.364
NCI-H2126 | 0.996 | 0.649 | 0.792 | 0.694 | 0.353 | 0.464
NCI-H2170 | 0.993 | 0.856 | 0.94 | 0.894 | 0.382 | 0.704
NCI-H2228 | 1.01 | 0.844 | 0.937 | 0.899 | 0.85 | 0.795
NCI-H2342 | 1.01 | 0.846 | 0.849 | 0.785 | 0.527 | 0.621
NCI-H2347 | 1.05 | 0.905 | 0.87 | 0.775 | 0.424 | 0.684
NCI-H2405 | 0.996 | 0.797 | 0.842 | 0.889 | 0.52 | 0.654
NCI-H3122 | 0.977 | 0.944 | 0.866 | 0.797 | 0.192 | 0.456
PC-3 [JPC-3] | 1.08 | 0.895 | 0.855 | 0.761 | 0.536 | 0.59
PC-14 | 1.13 | 0.847 | 0.841 | 0.873 | 0.514 | 0.503
RERF-LC-KJ | 1.02 | 0.871 | 0.968 | 1.02 | 1.09 | 1.02
SK-LU-1 | 1.05 | 0.912 | 0.828 | 0.794 | 0.385 | 0.563
SK-MES-1 | 0.931 | 0.852 | 0.683 | 0.648 | 0.327 | 0.361
SW 900 | 1.01 | – | 0.768 | 0.565 | 0.565 | 0.541
SW 1573 | 0.994 | 0.789 | 0.8 | 0.723 | 0.419 | 0.617
UMC-11 | 1 | 0.824 | 0.709 | 0.575 | 0.332 | 0.291
